Key:
[1] = Measurement of the substituted uracil formula (II) in simulated intestinal fluid (hydrolysis of active); format: physicochemical; conditions: for Levels of formula (II) in simulated intestinal fluid: 80 mg active in 250 mL fasted-state SIF, 37° C., 50 rpm
Experimental: To simulate in vitro the propensity of active tablets to give rise to abnormal smells in the human intestine, active equivalent to 80 mg was immersed in 250 mL simulated intestinal fluid (corresponding to the fasted state in humans) held at 37° C. and stirred at 50 rpm in a USP2 dissolution apparatus. This is chemically equivalent to a tablet whose enteric coat has been destroyed and whose core has subsequently disintegrated.
The level of formula (II) in solution was monitored over time, by withdrawing a small sample of the fluid and comparing its LC-MS response to that of a matrix-matched external standard (i.e. synthetic formula (II)).

[2] = Measurement of the substituted uracil formula (II) in simulated gastric fluid (hydrolysis of active); format: physicochemical; conditions: for Levels of Formula (II) in simulated gastric fluid: 60 mg active in 250 mL SGF, 37° C., 50 rpm
Text: Compounds of Formula (I) hydrolyse, particularly under conditions where pH corresponds to that typically prevailing in the human stomach, to form a thiol and a uracil in a 1:1 stoichiometric ratio. The thiol has a smell characteristic of compounds of its class, the intensity of the smell increasing with the concentration of the thiol. Thus the concentration of the uracil is a surrogate marker for the intensity of the smell.
To simulate in vitro the effect of enteric-coating on the propensity of 1-(N-(2-(Diethylamino)ethyl)-N-(4-(4-trifluoromethylphenyl)benzyl)aminocarbonylmethyl)-2-(4-fluorobenzyl)thio-5,6-trimethylenepyrimidin-4-one as the free base (called “active” in this example) to give rise to abnormal smells in vivo, a two-armed study was performed. In both arms, 60 mg of active was immersed in 250 mL simulated gastric fluid held at 37° C. and stirred at 50 rpm in a USP2 dissolution apparatus. In one arm, the active was present as an enteric-coated tablet. In the other arm, active was present as the unformulated drug substance, which is chemically equivalent to a tablet lacking an enteric coat.
The uracil produced by the active is N-[2-(diethylamino)ethyl]-2-(2,4-dioxo-2,3,4,5,6,7-hexahydro-1H-cyclopenta[d]pyrimidin-1-yl)-N-{[4′-(trifluoromethyl)-4-biphenylyl]methyl}acetamide, as shown in Formula (II): […]
In both arms, the level of formula (II) in solution was monitored over time, by withdrawing a small sample of the fluid and comparing its LC-MS response to that of a matrix-matched external standard (i.e. synthetic formula (II)).

Structure (SMILES): CCN(CC)CCN(Cc1ccc(-c2ccc(C(F)(F)F)cc2)cc1)C(=O)Cn1c(SCc2ccc(F)cc2)nc(=O)c2c1CCC2 [Unformulated drug, 1-(N-(2-(Diethylamino)ethyl)-N-(4-(4-trifluoromethylphenyl)benzyl)aminocarbonylmethyl)-2-(4-fluorobenzyl)thio-5,6-trimethylenepyrimidin-4-one]
- Levels of formula (II) in simulated intestinal fluid ([1]; 480 min): 2.99 ng/mL
- Levels of formula (II) in simulated intestinal fluid ([1]; 1440 min): 8.58 ng/mL
- Propensity to form formula (II) in simulated intestinal fluid ([1]; in contrast to behaviour in simulated gastric fluid): low propensity
- Levels of Formula (II) in simulated gastric fluid ([2]; 0 min, QL 1.71 ng/mL): 6270 ng/mL
- Levels of Formula (II) in simulated gastric fluid ([2]; 5 min, QL 1.71 ng/mL): 6570 ng/mL
- Levels of Formula (II) in simulated gastric fluid ([2]; 10 min, QL 1.71 ng/mL): 7180 ng/mL
- Levels of Formula (II) in simulated gastric fluid ([2]; 15 min, QL 1.71 ng/mL): 7970 ng/mL
- Levels of Formula (II) in simulated gastric fluid ([2]; 30 min, QL 1.71 ng/mL): 9270 ng/mL
- Levels of Formula (II) in simulated gastric fluid ([2]; 45 min, QL 1.71 ng/mL): 11450 ng/mL
- Levels of Formula (II) in simulated gastric fluid ([2]; 60 min): 13110 ng/mL
- Levels of Formula (II) in simulated gastric fluid ([2]; 120 min): 18940 ng/mL
- Levels of Formula (II) in simulated gastric fluid ([2]; 240 min): 25250 ng/mL
- Levels of Formula (II) in simulated gastric fluid ([2]; 480 min): 62910 ng/mL
- Levels of Formula (II) in simulated gastric fluid ([2]; 1440 min): 135600 ng/mL
- Reduction by the enteric coat of the level of formula (II) formed by active ([2]; simulated gastric fluid, enteric coated tablet versus unformulated drug): 4 orders of magnitude

— patent US8772303B2, “Pharmaceutical formulation” (Glaxo Group Limited, priority 2004, dated 2014)
